Assay results published in US20240400553A1, “AMINE BASED MATRIPTASE 2 INHIBITORS AND USES THEREOF” (Disc Medicine, Inc., priority 2023, published 2024).

Target: T1, Human Recombinant Matriptase 2 (Homo sapiens, UniProt Q8IU80)
T1 construct: made in house
T1 sequence (Q8IU80 1-811): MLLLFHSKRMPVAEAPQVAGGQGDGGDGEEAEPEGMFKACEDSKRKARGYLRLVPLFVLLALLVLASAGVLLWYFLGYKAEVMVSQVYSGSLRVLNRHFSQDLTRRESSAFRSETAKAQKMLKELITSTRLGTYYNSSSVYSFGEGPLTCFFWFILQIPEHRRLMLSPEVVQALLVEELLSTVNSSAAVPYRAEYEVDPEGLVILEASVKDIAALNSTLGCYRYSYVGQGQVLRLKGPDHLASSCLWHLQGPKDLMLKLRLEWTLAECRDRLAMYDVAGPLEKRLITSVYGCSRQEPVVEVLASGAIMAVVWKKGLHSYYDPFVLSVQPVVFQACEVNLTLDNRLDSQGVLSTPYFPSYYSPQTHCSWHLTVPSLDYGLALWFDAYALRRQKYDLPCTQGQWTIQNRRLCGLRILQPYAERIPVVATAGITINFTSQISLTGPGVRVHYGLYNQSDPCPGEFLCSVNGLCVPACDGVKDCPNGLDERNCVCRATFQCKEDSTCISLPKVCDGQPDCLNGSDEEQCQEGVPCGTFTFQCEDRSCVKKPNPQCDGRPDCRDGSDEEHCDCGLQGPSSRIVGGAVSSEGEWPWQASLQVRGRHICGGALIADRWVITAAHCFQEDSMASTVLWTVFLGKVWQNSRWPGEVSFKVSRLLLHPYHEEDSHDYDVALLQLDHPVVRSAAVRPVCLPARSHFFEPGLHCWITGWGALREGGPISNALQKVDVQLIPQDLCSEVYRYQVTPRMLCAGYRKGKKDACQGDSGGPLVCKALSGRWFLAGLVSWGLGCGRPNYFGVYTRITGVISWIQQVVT
Assay: Matriptase 2 inhibition, fluorescence based assay (Method I)
Format: biochemical
Conditions: Table A; Ki of Matriptase-2; read-out: Mat-2 Ki
Procedure, shortened: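 Fluorogenic readout (Ex 360/Em 480 nm) taken 60 min after adding 62 μM Boc-Gln-Ala-Arg-AMC, following 30-min enzyme–compound preincubation at 25 °C. Conditions: 3.5 nM in-house enzyme, pH 7.5 Tris/NaCl/gelatin buffer, 1% DMSO; percent inhibition versus concentration fitted by variable-slope sigmoidal regression.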

Ki	SMILES
500 to 3000 nM	NCc1ccc2cc(C(=O)OCC3CC3)n(Cc3cc(NS(=O)(=O)Cc4ccccc4)cc4ccccc34)c2n1 [Compound 120, cyclopropylmethyl 6-(aminomethyl)-1-{[3-(phenylmethanesulfon-amido)naphthalen-1-yl]-methyl}-1H-pyrrolo[2,3-b]pyridine-2-carboxylate]
500 to 3000 nM	CC(C)COC(=O)c1cc2ccc(CN)nc2n1Cc1cc(NS(=O)(=O)Cc2ccccc2)cc2ccccc12 [Compound 121, 2-methylpropyl 6-(aminomethyl)-1-{[3-(phenylmethanesulfon-amido)naphthalen-1-yl]-methyl}-1H-pyrrolo[2,3-b]pyridine-2-carboxylate]
500 to 3000 nM	NCc1ccc2cc(C(=O)OCc3ccccc3)n(Cc3cc(NS(=O)(=O)Cc4ccccc4)cc4ccccc34)c2n1 [Compound 123, benzyl 6-(aminomethyl)-1-{[3-(phenylmethane-sulfonamido)naphthalen-1-yl]methyl}-1H-pyr-rolo[2,3-b]pyridine-2-carboxylate]
500 to 3000 nM	N#Cc1ccc(OC(=O)c2cc3ccc(CN)nc3n2Cc2cc(NS(=O)(=O)Cc3ccccc3)cc3ccccc23)cc1 [Compound 125, 4-cyanophenyl 6-(aminomethyl)-1-{[3-(phenylmethanesulfon-amido)naphthalen-1-yl]-methyl}-1H-pyrrolo-[2,3-b]pyridine-2-car-boxylate]
500 to 3000 nM	CN(CCOC(=O)c1cc2ccc(CN)nc2n1Cc1cc(NS(=O)(=O)Cc2ccccc2)cc2ccccc12)c1ccccc1 [Compound 126, 2-[methyl(phenyl)-amino]ethyl 6-(amino-methyl)-1-{[3-(phenyl-methanesulfonamido)-naphthalen-1-yl]methyl}-1H-pyrrolo[2,3-b]pyr-idine-2-carboxylate]
100 to 500 nM	NCc1ccc2cc(C(=O)OCCN3CCOC3=O)n(Cc3cc(NS(=O)(=O)Cc4ccccc4)cc4ccccc34)c2n1 [Compound 130]
100 to 500 nM	CC(C)N(CCOC(=O)c1cc2ccc(CN)nc2n1Cc1cc(NS(=O)(=O)Cc2ccccc2)cc2ccccc12)C(C)C [Compound 131, 2-[bis(propan-2-yl)-amino]ethyl 6-(amino-methyl)-1-{[3-(phenyl-methanesulfonamido)-naphthalen-1-yl]meth-yl}-1H-pyrrolo[2,3-b]-pyridine-2-carboxylate]
100 to 500 nM	NCc1ccc2cc(C(=O)OCCCN3CCOCC3)n(Cc3cc(NS(=O)(=O)Cc4ccccc4)cc4ccccc34)c2n1 [Compound 133, 3-(morpholin-4-yl)prop-yl 6-(aminomethyl)-1-{[3-(phenylmethanesul-fonamido)naphthalen-1-ylmethyl}-1H-pyrrolo-[2,3-b]pyridine-2-car-boxylate]
100 to 500 nM	CN(CCOC(=O)c1cc2ccc(CN)nc2n1Cc1cc(NS(=O)(=O)Cc2ccccc2)cc2ccccc12)Cc1ccccc1 [Compound 134, 2-[benzyl(methyl)-amino]ethyl 6-(amino-methyl)-1-{[3-(phenyl-methanesulfonamido)-naphthalen-1-yl]methyl}-1H-pyrrolo[2,3-b]pyr-idine-2-carboxylate]
≤ 100 nM	CN1CCN(CCOC(=O)c2cc3ccc(CN)nc3n2Cc2cc(NS(=O)(=O)Cc3ccccc3)cc3ccccc23)CC1 [Compound 135, 2-(4-methylpiperazin-1-ylethyl 6-(aminomethyl)-1-{[3-(phenylmethane-sulfonamido)naphthalen-1-yl]methyl}-1H-pyrrolo-[2,3-b]pyridine-2-car-boxylate]
500 to 3000 nM	NCc1ccc2cc(C(=O)OCCN(Cc3ccccc3)CC3CC3)n(Cc3cc(NS(=O)(=O)Cc4ccccc4)cc4ccccc34)c2n1 [Compound 136, 2-[benzyl(cyclopropyl-methyl)amino]ethyl 6-(aminomethyl)-1-{[3-(phenylmethanesulfon-amido)naphthalen-1-yl]-methyl}-1H-pyrrolo[2,3-b]pyridine-2-carboxylate]
≤ 100 nM	Cn1ccnc1COC(=O)c1cc2ccc(CN)nc2n1Cc1cc(NS(=O)(=O)Cc2ccccc2)cc2ccccc12 [Compound 137, (1-methyl-1H-imidazol-2-yl)methyl 6-(amino-methyl)-1-{[3-(phenyl-methanesulfonamido)-naphthalen-1-yl]methyl}-1H-pyrrolo[2,3-b]pyr-idine-2-carboxylate]
100 to 500 nM	CN(C)C(=O)COC(=O)c1cc2ccc(CN)nc2n1Cc1cc(NS(=O)(=O)Cc2ccccc2)cc2ccccc12 [Compound 139, (dimethylcarbamoyl)-methyl 6-(aminomethyl)-1-{[3-(phenylmethane-sulfonamido)naphthalen-1-yl]methyl}-1H-pyrrolo-[2,3-b]pyridine-2-car-boxylate]
100 to 500 nM	Cc1nccn1CCOC(=O)c1cc2ccc(CN)nc2n1Cc1cc(NS(=O)(=O)Cc2ccccc2)cc2ccccc12 [Compound 140, 2-(2-methyl-1H-imid-azol-1-yl)ethyl 6-(amino-methyl)-1-{[3-(phenyl-methanesulfonamido)-naphthalen-1-yl]methyl}-1H-pyrrolo[2,3-b]pyr-idine-2-carboxylate]
100 to 500 nM	CC(=O)N(C)CCOC(=O)c1cc2ccc(CN)nc2n1Cc1cc(NS(=O)(=O)Cc2ccccc2)cc2ccccc12 [Compound 141, 2-(N-methylacetamido)-ethyl 6-(aminomethyl)-1-{[3-(phenylmethane-sulfonamido)naphthalen-1-yl]methyl}-1H-pyrrolo-[2,3-b]pyridine-2-car-boxylate]
100 to 500 nM	COCCN1CCC(COC(=O)c2cc3ccc(CN)nc3n2Cc2cc(NS(=O)(=O)Cc3ccccc3)cc3ccccc23)CC1 [Compound 142, [1-(2-methoxyethyl)-piperidin-4-yl]methyl 6-(aminomethyl)-1-{[3-(phenylmethanesulfon-amido)naphthalen-1-yl]-methyl}-1H-pyrrolo[2,3-b]pyridine-2-carboxylate]
≤ 100 nM	CN1CCC(COC(=O)c2cc3ccc(CN)nc3n2Cc2cc(NS(=O)(=O)Cc3cccs3)cc3ccccc23)CC1 [Compound 146, (1-methylpiperidin-4-yl)-methyl 6-(aminometh-yl)-1-({3-[(thiophen-2-yl)methanesulfonamido]-naphthalen-1-yl}methyl)-1H-pyrrolo[2,3-b]pyr-idine-2-carboxylate]
≤ 100 nM	CN1CCC(COC(=O)c2cc3ccc(CN)nc3n2Cc2cc(NS(=O)(=O)Cc3sccc3F)cc3ccccc23)CC1 [Compound 147, (1-methylpiperidin-4-yl)-methyl 6-(aminomethyl)-1-({3-[(3-fluorothiophen-2-yl)methanesulfon-amido]naphthalen-1-yl}-methyl)-1H-pyrrolo[2,3-b]pyridine-2-carboxylate]
≤ 100 nM	CN(C)CCOC(=O)c1cc2ccc(CN)nc2n1Cc1cc(NS(=O)(=O)Cc2cccs2)cc2ccccc12 [Compound 148, 2-(dimethylamino)ethyl 6-(aminomethyl)-1-({3-[(thiophen-2-yl)methane-sulfonamido]naphthalen-1-yl}methyl)-1H-pyr-rolo[2,3-b]pyridine-2-carboxylate]

SMILES	Ki
CN(CCOC(=O)c1cc2ccc(CN)nc2n1Cc1cc(NS(=O)(=O)Cc2ccccc2)cc2ccccc12)C(=O)OC(C)(C)C [Compound 122, 2-{[(tert-butoxy)carbon-yl](methyl)amino}ethyl 6-(aminomethyl)-1-{[3-(phenylmethanesulfon-amido)naphthalen-1-yl]-methyl}-1H-pyrrolo[2,3-b]pyridine-2-carboxylate]	500 to 3000 nM
